# Literature values as cited in patent US12201642B2, “Composition for the treatment of COVID-19” (priority 2020, dated 2025).
# What was measured:
# [1] = test system: influenza A H1N1 virus
# [2] = test system: influenza virus
# [3] = test system: HCMV; conditions: cultures of smooth muscle cells
smiles,measurement,setting,value
"CC(=O)Oc1ccccc1C(=O)O [Aspirin, Acetylsalicylic acid]",antiviral effectiveness,[1],highly effective
same,toxic side-effects,[2]; as anti-influenza agent,no toxic side-effects
same,effect on influenza virus replication,[2]; in vitro and in vivo,efficiently blocks influenza virus replication
same,reduction of the yield of HCMV (factor),[3],2-3
